Test results as given in patent US5464617A, “β-lactam compounds” (Hoffmann-La Roche Inc., priority 1994, dated 1995).
Converted amounts (≈) assume the structure as drawn. Structures can show the parent of a compound that is named as a salt.

How the values were obtained:
[1] = test system: Citrobacter freundii 1982; test: MIC in vitro of a 1:4 combination of ceftriaxone with a compound of formula I (Test D); type: cell-based; settings: test D
Description: The minimum inhibitory concentration in vitro ([…]) of a 1:4 combination of ceftriaxone with a compound of formula I against Citrobacter freundii 1982 was measured and compiled in Table 2 hereinafter.

E. coli 1346 = test: Antibacterial activity of the products per se, serial dilution method in liquid medium (Test E); type: cell-based; settings: test E, product per se
Text: The antibacterial activity of the products per se is illustrated on the basis of Table 3 hereinafter, the minimum inhibitory concentration […] in vitro against E. coli 1346 being determined using the serial dilution method in liquid medium: […]

[2] = Table 4, 1:4 combination of ceftriaxone with the compound

| SMILES | MIC C. freundii 1982 (D) [1, 2] [µg/mL] | MIC E. coli 1346 (E) (E. coli 1346; Table 4) [µg/mL] | MIC C. freundii 1982 (D) ([1]; Table 5, particularly preferred products, 1:4 combination with ceftriaxone) [µg/mL] | MIC E. coli 1346 (E) (E. coli 1346; Table 5, particularly preferred products) [µg/mL] |
| --- | --- | --- | --- | --- |
| C=CC1=C(C(=O)O)N2C(=O)[C@@H]3[C@H]2[C@H](C1)CN3C(=O)Nc1ccc(O)cc1 [46(a), (1aS,3aR,6bR)-2-(4-Hydroxy-phenylcarbamoyl)-1-oxo-5-vinyl-1a,2,3,3a,4,6b-hexahydro-1H-2,6a-diazacyclobut[cd]indene-6-carboxylic acid sodium salt] | 1 | 64 | – | – |
| C=CC1=C(C(=O)O)N2C(=O)[C@@H]3[C@H]2[C@H](C1)CN3C(=O)Nc1ccc(C(N)=O)cc1 [46(b), (1aS,3aR,6bR)-2-(4-Carbamoyl-phenylcarbamoyl)-1-oxo-5-vinyl-1a,2,3,3a,4,6b-hexahydro-1H-2,6a-diazacyclobut[cd]indene-6-carboxylic acid sodium salt] | 0.5 | > 32 | – | – |
| N#C/C=C\C1=C(C(=O)O)N2C(=O)[C@H]3NC[C@@H](C1)[C@H]32 [48(a), (Z)-(1aS,3aR,6bR)-5-(2-Cyanovinyl)-1-oxo-1a,2,3,3a,4,6b-hexahydro-1H-2,6a-diazacyclobut[cd]indene-6-carboxylic acid trifluoroacetate] | 4 | 16 | – | – |
| N#C/C=C/C1=C(C(=O)O)N2C(=O)[C@H]3NC[C@@H](C1)[C@H]32 [48(b), (E)-(1aS,3aR,6bR)-5-(2-Cyanovinyl)-1-oxo-1a,2,3,3a,4,6b-hexahydro-1H-2,6a-diazacyclobut[cd]indene-6-carboxylic acid trifluoroacetate] | 2 | 4 | – | – |
| N#C/C=C\C1=C(C(=O)O)N2C(=O)[C@@H]3[C@H]2[C@H](C1)CN3C(=O)Nc1ccc(O)cc1 [49(a), (Z) -(1aS,3aR,6bR)-5-(2-Cyanovinyl)-2-(4-hydroxyphenylcarbamoyl)-1-oxo-1a,2,3,3a,4,6b-hexahydro-1H-2,6a-diazacyclobut[cd]indene-6-carboxylic acid sodium salt] | 2 | > 32 | – | – |
| N#C/C=C/C1=C(C(=O)O)N2C(=O)[C@@H]3[C@H]2[C@H](C1)CN3C(=O)Nc1ccc(O)cc1 [49(b), (E)-(1aS,3aR,6bR)-5-(2-Cyanovinyl)-2-(4-hydroxyphenylcarbamoyl)-1-oxo-1a,2,3,3a,4,6b-hexahydro-1H-2,6a-diazacyclobut[cd]indene-6-carboxylic acid sodium salt] | 1 | 4 | – | – |
| CC(=O)N1C[C@H]2CC(CSc3cc[n+](CC(=O)[O-])cc3)=C(C(=O)O)N3C(=O)[C@@H]1[C@@H]23 [52(a), (1aS,3aR,6bR)-[4-(2-Acetyl-6-carboxy-1-oxo-1a,2,3,3a,4,6b-hexahydro-1H-2,6a-diaza-cyclobut[cd]inden-5-yl-methylsulphanyl)-pyridinio]-acetate bromoacetate (1:3.18) sodium salt (1:4.18)] | 4 | 8 | – | – |
| O=C([O-])C1=C(CSc2cc[n+](Cc3ccccc3)cc2)C[C@@H]2CN(C(=O)C(F)(F)F)[C@@H]3C(=O)N1[C@H]23 [52(d), (1aS,3aR,6bR)-5-(1-Benzyl-pyridin-4-yliosulphanylmethyl)-1-oxo-2-trifluoroacetyl-1a,2,3,3a,4,6b-hexahydro-1H-2,6a-diazacyclobut[cd]indene-6-carboxylate] | 1 | 2 (≈ 3.97 µM) | – | – |
| O=C([O-])Cc1ccc[n+](CC2=C(C(=O)O)N3C(=O)[C@@H]4[C@H]3[C@H](C2)CN4C(=O)Nc2ccc(O)cc2)c1 [57(b), (1aS,3aR,6bR)-[1-[6-Carboxy-2-(4-hydroxy-phenylcarbamoyl)-1-oxo-1a,2,3,3a,4,6b-hexahydro-1H-2,6a-diazacyclobut[cd]inden-5-ylmethyl]-pyridin-3-ylio]-acetate] | 0.25 | > 32 | – | – |
| CC(=O)N1C[C@H]2CC(COC(N)=O)=C(C(=O)O)N3C(=O)[C@@H]1[C@@H]23 [58(a), (1aS,3aR,6bR)-2-Acetyl-5-carbamoyloxymethyl-1-oxo-1a,2,3,3a,4,6b-hexahydro-1H-2,6a-diazacyclobut[cd]indene-6-carboxylic acid sodium salt] | 2 | > 32 | – | – |
| NC(=O)OCC1=C(C(=O)O)N2C(=O)[C@@H]3[C@H]2[C@H](C1)CN3C(=O)Cc1cccs1 [58(b), (1aS, 3aR,6bR)-5-Carbamoyloxymethyl-1-oxo-2-(thiophen-2-yl-acetyl)-1a,2,3,3a,4,6b-hexahydro-1H-2,6a-diazacyclobut[cd]indene-6-carboxylic acid sodium salt] | 0.5 | 16 | – | – |
| CS(=O)(=O)N1C[C@H]2CC(COC(N)=O)=C(C(=O)O)N3C(=O)[C@@H]1[C@@H]23 [58(c), (1aS,3aR,6bR)-5-Carbamoyloxymethyl-2-methylsulphonyl-1-oxo-1a,2,3,3a,4,6b-hexahydro-1H-2,6a-diazacyclobut[cd]indene-6-carboxylic acid sodium salt] | 0.5 | 0.5 | – | – |
| NC(=O)OCC1=C(C(=O)O)N2C(=O)[C@@H]3[C@H]2[C@H](C1)CN3C(=O)C(F)(F)F [58(d), (1aS,3aR,6bR)-5-Carbamoyloxymethyl-1-oxo-2-trifluoroacetyl-1a,2,3,3a,4,6b-hexahydro-1H-2,6a-diazacyclobut[cd]indene-6-carboxylic acid sodium salt] | – | – | 0.5 | 1 |
| NC(=O)OCC1=C(C(=O)O)N2C(=O)[C@@H]3[C@H]2[C@H](C1)CN3C(=O)CSc1nnc(N)s1 [58(f), (1aS,3aR,6bR)-2-(5-Amino-1,3,4-thiadiazol-2-ylsulphanylacetyl)-5-carbamoyloxymethyl-1-oxo-1a,2,3,3a,4,6b-hexahydro-1H-2,6a-diazacyclobut[cd]indene-6-carboxylic acid sodium salt] | 0.12 | 8 | – | – |
| NC(=O)OCC1=C(C(=O)O)N2C(=O)[C@@H]3[C@H]2[C@H](C1)CN3C(=O)CSc1ccncc1 [58(g), (1aS,3aR,6bR)-5-Carbamoyloxymethyl-1-oxo-2-pyridin-4-ylsulphanylacetyl-1a,2,3,3a,4,6b-hexahydro-1H-2,6a-diazacyclobut[cd]indene-6-carboxylic acid sodium salt] | 0.25 | 8 | – | – |
| NC(=O)OCC1=C(C(=O)O)N2C(=O)[C@@H]3[C@H]2[C@H](C1)CN3C(=O)CNc1ccccc1 [58(h), (1aS,3aR,6bR)-5-Carbamoyloxymethyl-1-oxo-2-phenylaminoacetyl-1a,2,3,3a,4,6b-hexahydro-1 H-2,6a-diazacyclobut[cd]indene-6-carboxylic acid sodium salt] | 1 | 32 | – | – |
| COC(=O)CN1C[C@H]2CC(COC(N)=O)=C(C(=O)O)N3C(=O)[C@@H]1[C@@H]23 [59(b), (1aS,3aR,6bR)-5-Carbamoyloxymethyl-2-methoxycarbonylmethyl-1-oxo-1a,2,3,3a,4,6b-hexahydro-1H-2,6a-diazacyclobut[cd]indene-6-carboxylic acid sodium salt] | 0.5 | 2 | – | – |
| CCN1C[C@H]2CC(COC(N)=O)=C(C(=O)O)N3C(=O)[C@@H]1[C@@H]23 [59(c), (1aS,3aR,6bR)-5-Carbamoyloxylmethyl-2-ethyl-1-oxo-1a,2,3,3a,4,6b-hexahydro-1H-2,6a-diazacyclobut[cd]indene-6-carboxylic acid sodium salt] | 2 | 8 | – | – |
| NC(=O)CN1C[C@H]2CC(COC(N)=O)=C(C(=O)O)N3C(=O)[C@@H]1[C@@H]23 [59(d), (1aS,3aR,6bR)-2-Carbamoylmethyl-5-carbamoyloxymethyl-1-oxo-1a,2,3,3a,4,6b-hexahydro-1H-2,6a-diazacyclobut[cd]indene-6-carboxylic acid sodium salt] | 1 | 8 | – | – |
| Cn1nnnc1SCC1=C(C(=O)O)N2C(=O)[C@@H]3[C@H]2[C@H](C1)CN3CC(=O)Nc1ccc(O)cc1 [61(b), (1aS,3aR,6bR)-2-(4-Hydroxy-phenylcarbamoylmethyl)-5-(1-methyl-1H-tetrazol-5-ylsulphanylmethyl)-1-oxo-1a,2,3,3a,4,6b-hexahydro-1H-2,6a-diazacyclobut[cd]indene-6-carboxylic acid sodium salt] | 2 | 16 | – | – |
| CC(=O)N1C[C@H]2CC(CSc3nnc(C)s3)=C(C(=O)O)N3C(=O)[C@@H]1[C@@H]23 [65(a), (1aS,3aR,6bR)-2-Acetyl-5-(5-methyl-1,3,4-thiadiazol-2-ylsulphanylmethyl)-1-oxo-1a,2,3,3a,4,6b-hexahydro-1H-2,6a-diazacyclobut[cd]indene-6-carboxylic acid sodium salt] | 1 | 0.5 | – | – |
| Cc1nnc(SCC2=C(C(=O)O)N3C(=O)[C@@H]4[C@H]3[C@H](C2)CN4C(=O)C(F)(F)F)s1 [65(b), (1aS,3aR,6bR)-5-(S-Methyl-1,3,4-thiadiazol-2-ylsulphanylmethyl)-1-oxo-2-trifluoroacetyl-1a,2,3,3a,4,6b-hexahydro-1H-2,6a-diazacyclobut[cd]indene-6-carboxylic acid sodium salt] | 1 | 2 | – | – |
| Cc1nnc(SCC2=C(C(=O)O)N3C(=O)[C@@H]4[C@H]3[C@H](C2)CN4C(=O)CSc2ccncc2)s1 [65(c), (1aS,3aR,6 bR)-5-(S-Methyl-1,3,4-thiadiazol-2-ylsulphanylmethyl)-1-oxo-2-(pyridin-4-ylsulphanylacetyl)-1a,2,3,3a,4,6b-hexahydro-1H-2,6a-diazacyclobut[cd]indene-6-carboxylic acid sodium salt] | 1 | 2 | – | – |
